Data as given in the NIST ThermoML archive (doi:10.1016/j.jct.2006.01.009).

Tests used:
[1] = 308.15 K, 101 kPa, Liquid; for speed of sound: Linear variable-path acoustic interferometer
[2] = xn = mol fraction of the nth substance listed; settings: 308.15 K, 101 kPa, Liquid; for speed of sound: Linear variable-path acoustic interferometer

CC(=O)c1ccc(Cl)cc1 [4'-chloroacetophenone]
[1]
Settings	mass density [kg/m3]	speed of sound [m/s]
–	1181.3	1390

CC(=O)c1ccc(Cl)cc1 [4'-chloroacetophenone] + CC#N
[2]
Settings	mass density [kg/m3]	speed of sound [m/s]
x1 = 0.092	857.2	1256
x1 = 0.1488	900.3	1266
x1 = 0.2128	941.5	1278
x1 = 0.2863	982.6	1292
x1 = 0.3792	1025.8	1310
x1 = 0.4876	1077.5	1330
x1 = 0.6196	1106.9	1350
x1 = 0.7847	1145	1372
x1 = 1	1181.3	1390

CC(=O)c1ccc(C)cc1 [4'-methylacetophenone]
[1]
Settings	mass density [kg/m3]	speed of sound [m/s]
–	996.3	1438

CC(=O)c1ccc(C)cc1 [4'-methylacetophenone] + CC#N
[2]
Settings	mass density [kg/m3]	speed of sound [m/s]
x1 = 0.0872	816	1272
x1 = 0.1449	841.6	1288
x1 = 0.2088	865.3	1305
x1 = 0.2823	888.1	1323
x1 = 0.3756	912.4	1344
x1 = 0.4771	934	1365
x1 = 0.6125	955.6	1389
x1 = 0.7811	976.1	1413
x1 = 1	996.3	1438

CC#N [acetonitrile]
[1]
Settings	mass density [kg/m3]	speed of sound [m/s]
–	770.6	1239

CC#N [acetonitrile] + CC(=O)c1ccc(C)cc1
[2], x2 = 0
Settings	mass density [kg/m3]	speed of sound [m/s]
–	770.6	1239

CC#N [acetonitrile] + CC(=O)c1ccc(Cl)cc1
[2], x2 = 0
Settings	mass density [kg/m3]	speed of sound [m/s]
–	770.6	1239

CC#N [acetonitrile] + CC(=O)c1ccccc1
[2], x2 = 0
Settings	mass density [kg/m3]	speed of sound [m/s]
–	770.6	1239

CC#N [acetonitrile] + CCC(=O)c1ccccc1
[2], x2 = 0
Settings	mass density [kg/m3]	speed of sound [m/s]
–	770.6	1239

CC(=O)c1ccccc1 [acetophenone]
[1]
Settings	mass density [kg/m3]	speed of sound [m/s]
–	1020	1445

CC(=O)c1ccccc1 [acetophenone] + CC#N
[2]
Settings	mass density [kg/m3]	speed of sound [m/s]
x1 = 0.048	796.8	1254
x1 = 0.1023	823.3	1268
x1 = 0.1626	849.3	1284
x1 = 0.2321	874.7	1303
x1 = 0.3113	900	1327
x1 = 0.4024	924.7	1351
x1 = 0.5125	949.3	1374
x1 = 0.6426	972.2	1395
x1 = 0.8018	995.6	1417
x1 = 1	1020	1445

CCC(=O)c1ccccc1 [ethyl phenyl ketone]
[1]
Settings	mass density [kg/m3]	speed of sound [m/s]
–	1000.6	1432

CCC(=O)c1ccccc1 [ethyl phenyl ketone] + CC#N
[2]
Settings	mass density [kg/m3]	speed of sound [m/s]
x1 = 0.0418	793.4	1250
x1 = 0.0922	817.8	1264
x1 = 0.1459	841.2	1279
x1 = 0.2084	864.9	1296
x1 = 0.2864	889.8	1314
x1 = 0.3757	913.6	1335
x1 = 0.4796	936	1357
x1 = 0.6093	957.5	1381
x1 = 0.7791	978.6	1406
x1 = 1	1000.6	1432
